IC50 data for 19 compounds are collected here from patent US12297203B2, “Pyrrolopyrimidine ITK inhibitors” (ACLARIS THERAPEUTICS, INC., priority 2018, dated 2025).

As a reminder, the IC50 is the concentration that gives 50% inhibition.

Experiment [1] concerns the target ITK (Homo sapiens (Human), UniProt Q08881). The experiment can be described thus: ITK inhibitor binding potency (LanthaScreen competitive binding assay). The conditions noted are these: read-out: ITK Inh. IC50. In outline: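 TR-FRET tracer displacement: 10 nM GST-ITK, 2 nM Eu-anti-GST, 50 nM tracer-236 in HEPES pH 7.5, MgCl2, 2% DMSO; 11 points, 20 µM–0.34 nM. Run with or without 2 h compound–ITK preincubation before tracer; IC50 by 4-parameter fit of emission ratio.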

For experiment [2], the target named is JAK3 (Homo sapiens (Human), UniProt P52333). Put plainly: JAK3 enzyme activity assay (Caliper mobility shift). The experiment is classed as biochemical. Particulars: ATP at Km level; read-out: JAK3 Inh. IC50. The gist of the method:
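Caliper mobility-shift assay with 2.5 nM JAK3, […] and […] (Km level) in 20 mM HEPES pH 7.5, 10 mM MgCl2, 0.01% BSA, 0.0005% Tween-20, 2% DMSO. 11-point dose-response from […] 0.34 nM; IC50 by 4-parameter logistic fit of product/substrate signal.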

For experiment [3], the system named is ITK phosphorylation of its substrate, PLCγ1, at Y783. The experiment can be described thus: ITK target modulation assay (PLCγ1 Y783 phosphorylation, anti-CD3 stimulated Jurkat T cells). The experiment is classed as cell-based. Particulars: Homo sapiens, Jurkat, anti-CD3 Dynabeads stimulation, read-out: PLC-γ Inh. IC50. The gist of the method:
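Jurkat cells (400,000/well) were preincubated with compound for 1 h at 37 °C (0.1% DMSO final), then stimulated with anti-CD3 Dynabeads (bead:cell 2:1). Hypotonic lysates were dot-blotted and probed for phospho-PLCγ1 Y783 and total PLCγ1, with quantification by dual-channel infrared imaging.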

Experiment [4] concerns JAK1/3 phosphorylation of its substrate, STAT5, at Y694. The experiment can be described thus: JAK1/3 target modulation assay (IL-2 stimulated STAT5 Y694 phosphorylation in PBMC). Type of experiment: cell-based. Particulars: Homo sapiens, PBMC, Primary human peripheral blood mononuclear cells, IL-2 25 ng/mL; read-out: IL2-STAT5 Inh. IC50. In outline: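 Human PBMCs preincubated with compound for 1 h at 37 °C, then stimulated with IL-2 (25 ng/mL final) for 5 min. Cells were lysed and phospho-STAT5a,b (Y694) measured by MSD electrochemiluminescence immunoassay, single-plex or multiplex with total STAT5a,b.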

ITK, sequence (Q08881 whole entry): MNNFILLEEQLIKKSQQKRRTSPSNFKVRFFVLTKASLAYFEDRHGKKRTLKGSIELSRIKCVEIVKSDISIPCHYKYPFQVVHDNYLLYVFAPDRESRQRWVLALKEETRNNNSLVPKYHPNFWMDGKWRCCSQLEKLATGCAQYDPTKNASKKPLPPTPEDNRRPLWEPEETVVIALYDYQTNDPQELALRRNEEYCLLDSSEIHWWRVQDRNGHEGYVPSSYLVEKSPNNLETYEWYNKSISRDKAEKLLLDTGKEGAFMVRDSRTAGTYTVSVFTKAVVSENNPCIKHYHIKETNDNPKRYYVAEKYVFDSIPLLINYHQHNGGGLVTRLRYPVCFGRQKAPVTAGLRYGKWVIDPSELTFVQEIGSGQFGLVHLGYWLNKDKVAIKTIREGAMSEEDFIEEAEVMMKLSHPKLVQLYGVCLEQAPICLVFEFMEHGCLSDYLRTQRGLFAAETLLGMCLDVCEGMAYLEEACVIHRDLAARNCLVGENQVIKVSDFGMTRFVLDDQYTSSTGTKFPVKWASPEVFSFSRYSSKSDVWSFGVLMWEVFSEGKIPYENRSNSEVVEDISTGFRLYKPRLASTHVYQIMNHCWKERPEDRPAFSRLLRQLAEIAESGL
JAK3, sequence (P52333 781-1124): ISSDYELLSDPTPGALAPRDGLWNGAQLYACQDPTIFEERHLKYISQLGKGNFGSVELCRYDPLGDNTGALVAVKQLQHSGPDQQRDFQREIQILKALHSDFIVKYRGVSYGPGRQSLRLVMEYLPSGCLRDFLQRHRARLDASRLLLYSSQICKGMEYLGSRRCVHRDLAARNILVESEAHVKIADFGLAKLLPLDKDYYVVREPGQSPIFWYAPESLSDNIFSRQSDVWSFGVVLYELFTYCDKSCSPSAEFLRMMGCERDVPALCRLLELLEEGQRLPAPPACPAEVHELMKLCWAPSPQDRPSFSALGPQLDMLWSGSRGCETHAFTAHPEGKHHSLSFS

For `C=CC(=O)N1C[C@H](Nc2ccnc3[nH]cc([C@H]4CC4(F)F)c23)CC[C@@H]1C` (single isomer, unassigned) [Example 73], the IC50 in experiment [1] is not above 10 nM; in experiment [2], not above 10 nM; in experiment [3], not above 100 nM; in experiment [4] it was not above 100 nM.
In the case of `C=CC(=O)N1C[C@H](Nc2ccnc3[nH]cc([C@@H]4CC4(F)F)c23)CC[C@@H]1C` (single isomer, unassigned) [Example 74], the concentration for half-maximal inhibition (IC50) in experiment [1] is not above 10 nM; in experiment [2] it was not above 10 nM; in experiment [3] it was 100 to 1000 nM; in experiment [4], 100 to 1000 nM.
Regarding `C=CC(=O)N1C[C@H](Nc2ccnc3[nH]cc([C@H]4C[C@@H]4COC)c23)CC[C@@H]1C` (single isomer, unassigned) [Example 76], the half-maximal inhibitory concentration (IC50) was more than 100 nM in experiment [1], 10 to 100 nM in experiment [2], more than 1000 nM in experiment [3] and more than 1000 nM in experiment [4].
Take `C=CC(=O)N1C[C@H](Nc2ccnc3[nH]cc([C@@H]4C[C@H]4COC)c23)CC[C@@H]1C` (single isomer, unassigned) [Example 77]: the half-inhibitory concentration (IC50) in experiment [1] was not above 10 nM; in experiment [2] it was not above 10 nM; in experiment [3] it was 100 to 1000 nM; in experiment [4], 100 to 1000 nM.
As for `C=CC(=O)N1CCC[C@@H](Nc2ncnc3[nH]cc([C@]45CCC[C@H]4C5(F)F)c23)C1` (single isomer, unassigned) [Example 80], the concentration for half-maximal inhibition (IC50) was 10 to 100 nM in experiment [1], not above 10 nM in experiment [2], more than 1000 nM in experiment [3] and more than 1000 nM in experiment [4].
Regarding `C=CC(=O)N1CCC[C@@H](Nc2ncnc3[nH]cc(C(=O)OCC)c23)C1` [Example 1, ethyl (R)-4-((1-acryloylpiperidin-3-yl)amino)-7H-pyrrolo[2,3-d]pyrimidine-5-carboxylate], the IC50 in experiment [1] was not above 10 nM; in experiment [2], not above 10 nM; in experiment [3], more than 1000 nM; in experiment [4], 100 to 1000 nM.
For `C=CC(=O)N1C[C@H](Nc2ncnc3[nH]cc(C(=O)OCC)c23)CC[C@@H]1C` [Example 2, ethyl 4-(((3R,6S)-1-acryloyl-6-methylpiperidin-3-yl)amino)-7H-pyrrolo[2,3-d]pyrimidine-5-carboxylate], the IC50 in experiment [1] was not above 10 nM; in experiment [2], not above 10 nM; in experiment [3] it was 100 to 1000 nM; in experiment [4] it was 100 to 1000 nM.
Consider `C=CC(=O)N1C[C@H](Nc2ncnc3[nH]cc(C(=O)OCCC)c23)CC[C@@H]1C` [Example 3, propyl 4-(((3R,6S)-1-acryloyl-6-methylpiperidin-3-yl)amino)-7H-pyrrolo[2,3-d]pyrimidine-5-carboxylate], for which the IC50 in experiment [1] is not above 10 nM; in experiment [2] it was not above 10 nM; in experiment [3], not above 100 nM; in experiment [4], 100 to 1000 nM.
As to `C=CC(=O)N1C[C@H](Nc2ncnc3[nH]cc(C(=O)OC(C)C)c23)CC[C@@H]1C` [Example 4, isopropyl 4-(((3R,6S)-1-acryloyl-6-methylpiperidin-3-yl)amino)-7H-pyrrolo[2,3-d]pyrimidine-5-carboxylate], the IC50 was not above 10 nM in experiment [1], not above 10 nM in experiment [2], 100 to 1000 nM in experiment [3] and 100 to 1000 nM in experiment [4].
With `C=CC(=O)N1CCC[C@@H](Nc2ncnc3[nH]cc(C(=O)C4CC4)c23)C1` [Example 5, (R)-1-(3-((5-(cyclopropanecarbonyl)-7H-pyrrolo[2,3-d]pyrimidin-4-yl)amino)piperidin-1-yl)prop-2-en-1-one], the IC50 is not above 10 nM in experiment [1], 10 to 100 nM in experiment [2], 100 to 1000 nM in experiment [3] and more than 1000 nM in experiment [4].
As for `C=CC(=O)N1CCC[C@@H](Nc2ncnc3[nH]cc(C(=O)C4CCCC4)c23)C1` [Example 6, (R)-1-(3-((5-(cyclopentanecarbonyl)-7H-pyrrolo[2,3-d]pyrimidin-4-yl)amino)piperidin-1-yl)prop-2-en-1-one], the IC50 is not above 10 nM in experiment [1], 10 to 100 nM in experiment [2], 100 to 1000 nM in experiment [3] and more than 1000 nM in experiment [4].
The corresponding values for `C=CC(=O)N1CC(Nc2ncnc3[nH]cc(C(=O)C4CC4)c23)C1` [Example 7, 1-(3-((5-(cyclopropanecarbonyl)-7H-pyrrolo[2,3-d]pyrimidin-4-yl)amino)azetidin-1-yl)prop-2-en-1-one] are 10 to 100 nM, more than 100 nM, more than 1000 nM and more than 1000 nM.
The corresponding values for `C=CC(=O)N1CCC[C@@H](Nc2ccnc3[nH]cc(C(=O)CCOC)c23)C1` [Example 8, (R)-1-(3-((3-(3-methoxypropanoyl)-1H-pyrrolo[2,3-b]pyridin-4-yl)amino)piperidin-1-yl)prop-2-en-1-one] are 10 to 100 nM, 10 to 100 nM, more than 1000 nM and more than 1000 nM.
The corresponding values for `C=CC(=O)N1CCC[C@@H](Nc2ccnc3[nH]cc(C(=O)C4CC4)c23)C1` [Example 9, (R)-1-(3-((3-(cyclopropanecarbonyl)-1H-pyrrolo[2,3-b]pyridin-4-yl)amino)piperidin-1-yl)prop-2-en-1-one] are not above 10 nM, not above 10 nM, 100 to 1000 nM and 100 to 1000 nM.
Turning to `C=CC(=O)N1CCC(Nc2ccnc3[nH]cc(C(=O)C4CC4)c23)CC1` [Example 10, 1-(4-((3-(cyclopropanecarbonyl)-1H-pyrrolo[2,3-b]pyridin-4-yl)amino)piperidin-1-yl)prop-2-en-1-one], the IC50 was more than 100 nM in experiment [1], more than 100 nM in experiment [2], more than 1000 nM in experiment [3] and more than 1000 nM in experiment [4].
On to `C=CC(=O)N1CCC[C@@H](Nc2ccnc3[nH]cc(C(=O)C4CCCC4)c23)C1` [Example 13, (R)-1-(3-((3-(cyclopentanecarbonyl)-1H-pyrrolo[2,3-b]pyridin-4-yl)amino)piperidin-1-yl)prop-2-en-1-one], for which the half-inhibitory concentration (IC50) in experiment [1] was not above 10 nM; in experiment [2] it was 10 to 100 nM; in experiment [3], 100 to 1000 nM; in experiment [4] it was 100 to 1000 nM.
As to `C=CC(=O)N1CCC[C@@H](Nc2ccnc3[nH]cc(C(=O)C4(C)CC4)c23)C1` [Example 14, (R)-1-(3-((3-(1-methylcyclopropane-1-carbonyl)-1H-pyrrolo[2,3-b]pyridin-4-yl)amino)piperidin-1-yl)prop-2-en-1-one], the IC50 was not above 10 nM in experiment [1], not above 10 nM in experiment [2], 100 to 1000 nM in experiment [3] and 100 to 1000 nM in experiment [4].
With `C=CC(=O)N1CC[C@@H](Nc2ccnc3[nH]cc(C(=O)C4CC4)c23)C1` [Example 15, (R)-1-(3-((3-(cyclopropanecarbonyl)-1H-pyrrolo[2,3-b]pyridin-4-yl)amino)pyrrolidin-1-yl)prop-2-en-1-one], the IC50 in experiment [1] was not above 10 nM; in experiment [2], 10 to 100 nM; in experiment [3] it was 100 to 1000 nM; in experiment [4], more than 1000 nM.
The corresponding values for `C=CC(=O)N1C[C@H](Nc2ncnc3[nH]cc(C(=O)OCC(C)C)c23)CC[C@@H]1C` [Example 16, isobutyl 4-(((3R,6S)-1-acryloyl-6-methylpiperidin-3-yl)amino)-7H-pyrrolo[2,3-d]pyrimidine-5-carboxylate] are 10 to 100 nM, not above 10 nM, more than 1000 nM and 100 to 1000 nM.
